These results are taken from patent US20120329731A1 (priority 2006, published 2012).

Where two headings read alike, the source gives them in different places.

The subject of one data set is righting reflex. The settings on record: mouse, in vivo, ip.
The subject of the next data set is cyanide poisoning. Also on record: species or system mice. The settings on record: mouse, in vivo.

On to `N[C@@H](CCC(=O)N[C@@H](CSSC[C@H](N)C(=O)O)C(=O)NCC(=O)O)C(=O)O` [CySSG, reference compound], for which, in the data set with righting reflex, the “Screen Righting time (Ave ± SE)” value is 8.8 ± 2.2 s. Also, in the data set with cyanide poisoning, the “% S (percent survivors)” value turned out to be 100%, the “P.I. (protective index)” value is 2.5 and the “Screen Righting time (Ave ± SE)” value was 27.7 ± 2.7 min. Further, in the data set on cyanide poisoning (po), the “% S (percent survivors)” value is 100%.
With `CCOC(=O)C1(O)CSC(O)(C(=O)OCC)CS1` (stereo not shown) [PD 2, 2,5-Dihydroxy-2,5-dicarbethoxy-1,4-dithiane], the “Screen Righting time (Ave ± SE)” value in the data set on righting reflex is 21.2 ± 1.2 s. For the same molecule, in the data set with cyanide poisoning, the “% S (percent survivors)” value is recorded as 100% and the “P.I. (protective index: recovery time CN-treated / recovery time PD-treated)” value is recorded as 7.6. The “Protective Indices compared with the combination of nitrite and thiosulfate” value in the data set on cyanide poisoning (ip) is “generally superior”. For the same molecule, in the data set with cyanide poisoning (po), the “% S (percent survivors)” value was determined as 100% and the “antidotal activity when administered by the oral route” value was “retain their antidotal activity”.
`C/C1=C2/[N-][C@H]([C@H](CC(N)=O)[C@@]2(C)CCC(=O)NC[C@@H](C)OP(=O)([O-])O[C@H]2[C@@H](O)[C@@H](n3cnc4cc(C)c(C)cc43)O[C@@H]2CO)[C@]2(C)N=C(/C(C)=C3N=C(/C=C4N=C1[C@@H](CCC(N)=O)C\4(C)C)[C@@H](CCC(N)=O)[C@]\3(C)CC(N)=O)[C@@H](CCC(N)=O)[C@]2(C)CC(N)=O.[Co+3].[OH-]` [H, Hydroxocobalamin, reference compound]: the “Screen Righting time (Ave ± SE)” value in the data set with righting reflex came out at 7.1 ± 0.6 s. In addition, in the data set with cyanide poisoning, the “% S (percent survivors)” value was 100% and the “P.I. (protective index: recovery time CN-treated / recovery time PD-treated)” value was 5.2.
On to `O.O.O.O.O=C(O)C1(O)CSC(O)(C(=O)O)CS1.[Na].[Na]` (stereo not shown) [13 (X = Na), Disodium 2,5-dihydroxy-1,4-dithiane-2,5-dicarboxylic acid tetrahydrate], for which the “Screen Righting time (Ave ± SE)” value with righting reflex turned out to be 14.0 ± 2.3 s. Moreover, in the data set on cyanide poisoning, the “% S (percent survivors)” value amounted to 100%, the “P.I. (protective index)” value is 4.0 and the “Screen Righting time (Ave ± SE)” value was 17.0 ± 3.3 min. Besides, the “% S (percent survivors)” value in the data set on cyanide poisoning (po) amounted to 100%.
